Experimental data taken from publication PMC3077598 (The Journal of Biological Chemistry, 2011).

Tests used:
TASK-1 [1] = molecular target: TASK-1 (Homo sapiens, UniProt O14649, T199A); experiment: two-electrode voltage clamp, Xenopus oocytes; format: cell-based; conditions: read-out: % inhibition at 400 nM
TASK-1 [2] = molecular target: TASK-1 (Homo sapiens, UniProt O14649, T93A); experiment: two-electrode voltage clamp, Xenopus oocytes; format: cell-based; conditions: read-out: % inhibition at 400 nM
Sequence of TASK-1 (Homo sapiens, UniProt O14649, T93A) (O14649 whole entry T93A): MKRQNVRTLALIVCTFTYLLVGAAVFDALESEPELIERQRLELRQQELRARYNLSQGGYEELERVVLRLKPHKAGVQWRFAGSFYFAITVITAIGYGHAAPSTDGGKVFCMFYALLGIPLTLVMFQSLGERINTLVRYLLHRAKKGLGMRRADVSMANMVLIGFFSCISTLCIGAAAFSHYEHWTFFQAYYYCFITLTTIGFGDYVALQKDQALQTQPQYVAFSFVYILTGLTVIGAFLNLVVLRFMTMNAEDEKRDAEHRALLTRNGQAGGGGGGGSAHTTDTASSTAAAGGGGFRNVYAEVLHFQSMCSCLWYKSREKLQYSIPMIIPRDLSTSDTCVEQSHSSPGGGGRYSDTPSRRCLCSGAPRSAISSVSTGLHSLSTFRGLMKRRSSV

Sequence of TASK-1 (Homo sapiens, UniProt O14649, T199A) (O14649 whole entry T199A): as the sequence (O14649 whole entry T93A) above, with A93T, T199A counted along it

inhibition at 0.4 µM (TASK-1 [1]): 36.4 ± 6.4%
inhibition at 0.4 µM (TASK-1 [2]): 26.4 ± 6.4%
Structure (SMILES): COc1ccc(CC(=O)NCc2ccccc2-c2ccccc2C(=O)NCc2ccc(F)cc2F)cc1 [A1899]
